# Experimental data published in ChEMBL document CHEMBL5365420, “Kinetics, Thermodynamics, and Structural Effects of Quinoline-2-Carboxylates, Zinc-Binding Inhibitors of New Delhi Metallo-β-lactamase-1 Re-sensitizing Multidrug-Resistant Bacteria for Carbapenems” (J Med Chem, 2023).
# Tests used:
# Format in all cases: functional
# Klebsiella pneumoniae [1] = test: Antibacterial activity against clinical isolate Klebsiella pneumoniae ST1493/10 expressing blaNDM-1 co-expressing blaCMY-2like/blaTEM-1/blaCTX-M-15/blaSHV-28/blaOXA-1 and blaOXA-9 assessed as meropenem MIC at 23.5 uM measured after 20 hrs by broth microdilution assay (reference value: 5.03 mg/L)
# Escherichia coli [2] = test: Antibacterial activity against clinical isolate Escherichia coli K12 J53-ST10 699/15 expressing blaNDM-1 assessed as meropenem MIC at 23.5 uM measured after 20 hrs by broth microdilution assay (reference value: 5.03 mg/L)
# Escherichia coli [3] = test: Antibacterial activity against clinical isolate Escherichia coli ST1012/10 expressing blaNDM-1 co-expressing blaTEM-1/blaCTX-M-15/blaOXA-1 and blaOXA-2 assessed as meropenem MIC at 47 uM measured after 20 hrs by broth microdilution assay (reference value: 10.06 mg/L)
# Acinetobacter baumannii [4] = test: Antibacterial activity against clinical isolate Acinetobacter baumannii IC 19/09 expressing blaNDM-1 co-expressing blaOXA-64 assessed as meropenem MIC at 23.5 uM measured after 20 hrs by broth microdilution assay (reference value: 5.03 mg/L)
# Escherichia coli [5] = test: Antibacterial activity against clinical isolate Escherichia coli 371/12 expressing blaNDM-7 co-expressing blaCTX-M-15 and blaOXA-1 assessed as meropenem MIC at 23.5 uM measured after 20 hrs by broth microdilution assay (reference value: 5.03 mg/L)
# Acinetobacter baumannii [6] = test: Antibacterial activity against clinical isolate Acinetobacter baumannii IC 19/09 expressing blaNDM-1 co-expressing blaOXA-64 assessed as meropenem MIC at 47 uM measured after 20 hrs by broth microdilution assay (reference value: 10.06 mg/L)
# Escherichia coli [7] = test: Antibacterial activity against clinical isolate Escherichia coli 371/12 expressing blaNDM-7 co-expressing blaCTX-M-15 and blaOXA-1 assessed as meropenem MIC at 47 uM measured after 20 hrs by broth microdilution assay (reference value: 10.06 mg/L)
# Escherichia coli [8] = test: Antibacterial activity against clinical isolate Escherichia coli K12 J53-ST10 684/18 expressing blaNDM-1 co-expressing blaCMY-2 and blaOXA-10 assessed as meropenem MIC at 23.5 uM measured after 20 hrs by broth microdilution assay (reference value: 5.03 mg/L)
# Klebsiella pneumoniae [9] = test: Antibacterial activity against clinical isolate Klebsiella pneumoniae 62/07 expressing blaVIM-19 co-expressing blaSHV-1/blaCTX-M-14 and blaCMY-4 assessed as meropenem MIC at 23.5 uM measured after 20 hrs by broth microdilution assay (reference value: 5.03 mg/L)
# Escherichia coli [10] = test: Antibacterial activity against clinical isolate Escherichia coli K12 J53-ST10 684/18 expressing blaNDM-1 co-expressing blaCMY-2 and blaOXA-10 assessed as meropenem MIC at 47 uM measured after 20 hrs by broth microdilution assay (reference value: 10.06 mg/L)
# Escherichia coli [11] = test: Antibacterial activity against clinical isolate Escherichia coli K12 J53-ST10 618/15 expressing blaNDM-1 assessed as meropenem MIC at 47 uM measured after 20 hrs by broth microdilution assay (reference value: 10.06 mg/L)
# Klebsiella pneumoniae [12] = test: Antibacterial activity against clinical isolate Klebsiella pneumoniae 50/20 expressing blaNDM-5 co-expressing blaTEM-1 and blaSHV-1 assessed as meropenem MIC at 47 uM measured after 20 hrs by broth microdilution assay (reference value: 10.06 mg/L)
# Escherichia coli [13] = test: Antibacterial activity against clinical isolate Escherichia coli K12 J53-ST10 696/17 expressing blaNDM-1 co-expressing blaCMY-4 assessed as meropenem MIC at 47 uM measured after 20 hrs by broth microdilution assay (reference value: 10.06 mg/L)
# Klebsiella pneumoniae [14] = test: Antibacterial activity against clinical isolate Klebsiella pneumoniae 50/20 expressing blaNDM-5 co-expressing blaTEM-1 and blaSHV-1 assessed as meropenem MIC at 23.5 uM measured after 20 hrs by broth microdilution assay (reference value: 5.03 mg/L)
# Escherichia coli [15] = test: Antibacterial activity against clinical isolate Escherichia coli ST1012/10 expressing blaNDM-1 co-expressing blaTEM-1/blaCTX-M-15/blaOXA-1 and blaOXA-2 assessed as meropenem MIC at 23.5 uM measured after 20 hrs by broth microdilution assay (reference value: 5.03 mg/L)
# Escherichia coli [16] = test: Antibacterial activity against clinical isolate Escherichia coli K12 J53-ST10 696/17 expressing blaNDM-1 co-expressing blaCMY-4 assessed as meropenem MIC at 23.5 uM measured after 20 hrs by broth microdilution assay (reference value: 5.03 mg/L)
# Escherichia coli [17] = test: Antibacterial activity against clinical isolate Escherichia coli K12 J53-ST10 699/15 expressing blaNDM-1 assessed as meropenem MIC at 47 uM measured after 20 hrs by broth microdilution assay (reference value: 10.06 mg/L)
# Klebsiella pneumoniae [18] = test: Antibacterial activity against clinical isolate Klebsiella pneumoniae 50/11 expressing blaNDM-1 co-expressing blaTEM-1/blaSHV-28/blaTEM-1/blaCTX-M-15 and blaOXA-1 assessed as meropenem MIC at 47 uM measured after 20 hrs by broth microdilution assay (reference value: 10.06 mg/L)
# Klebsiella pneumoniae [19] = test: Antibacterial activity against clinical isolate Klebsiella pneumoniae ST1493/10 expressing blaNDM-1 co-expressing blaCMY-2like/blaTEM-1/blaCTX-M-15/blaSHV-28/blaOXA-1 and blaOXA-9 assessed as meropenem MIC at 47 uM measured after 20 hrs by broth microdilution assay (reference value: 10.06 mg/L)
# Klebsiella pneumoniae [20] = test: Antibacterial activity against clinical isolate Klebsiella pneumoniae ST23213/19 expressing blaNDM-1 co-expressing blaOXA-48/blaSHV-11/blaCTX-M-15 and blaOXA-1 assessed as meropenem MIC at 47 uM measured after 20 hrs by broth microdilution assay (reference value: 10.06 mg/L)
# Klebsiella pneumoniae [21] = test: Antibacterial activity against clinical isolate Klebsiella pneumoniae ST23213/19 expressing blaNDM-1 co-expressing blaOXA-48/blaSHV-11/blaCTX-M-15 and blaOXA-1 assessed as meropenem MIC at 23.5 uM measured after 20 hrs by broth microdilution assay (reference value: 5.03 mg/L)
# Escherichia coli [22] = test: Antibacterial activity against clinical isolate Escherichia coli K12 J53-ST10 618/15 expressing blaNDM-1 assessed as meropenem MIC at 23.5 uM measured after 20 hrs by broth microdilution assay (reference value: 5.03 mg/L)
# Klebsiella pneumoniae [23] = test: Antibacterial activity against clinical isolate Klebsiella pneumoniae 50/11 expressing blaNDM-1 co-expressing blaTEM-1/blaSHV-28/blaTEM-1/blaCTX-M-15 and blaOXA-1 assessed as meropenem MIC at 23.5 uM measured after 20 hrs by broth microdilution assay (reference value: 5.03 mg/L)
# Klebsiella pneumoniae [24] = test: Antibacterial activity against clinical isolate Klebsiella pneumoniae 62/07 expressing blaVIM-19 co-expressing blaSHV-1/blaCTX-M-14 and blaCMY-4 assessed as meropenem MIC at 47 uM measured after 20 hrs by broth microdilution assay (reference value: 10.06 mg/L)
structure (smiles),measurement,setting,value
Oc1c(Cl)cc(Cl)c2cccnc12 [CHLOROXINE],MIC,Klebsiella pneumoniae [1],128 µg/mL
same,MIC,Escherichia coli [2],≤ 0.125 µg/mL
same,MIC,Escherichia coli [3],≤ 0.125 µg/mL
same,MIC,Acinetobacter baumannii [4],≤ 0.125 µg/mL
same,MIC,Escherichia coli [5],≤ 0.125 µg/mL
same,MIC,Acinetobacter baumannii [6],≤ 0.125 µg/mL
same,MIC,Escherichia coli [7],≤ 0.125 µg/mL
same,MIC,Escherichia coli [8],≤ 0.125 µg/mL
same,MIC,Klebsiella pneumoniae [9],8 µg/mL
same,MIC,Escherichia coli [10],≤ 0.125 µg/mL
same,MIC,Escherichia coli [11],≤ 0.125 µg/mL
same,MIC,Klebsiella pneumoniae [12],≤ 0.125 µg/mL
same,MIC,Escherichia coli [13],≤ 0.125 µg/mL
same,MIC,Klebsiella pneumoniae [14],4 µg/mL
same,MIC,Escherichia coli [15],≤ 0.125 µg/mL
same,MIC,Escherichia coli [16],≤ 0.125 µg/mL
same,MIC,Escherichia coli [17],≤ 0.125 µg/mL
same,MIC,Klebsiella pneumoniae [18],≤ 0.125 µg/mL
same,MIC,Klebsiella pneumoniae [19],16 µg/mL
same,MIC,Klebsiella pneumoniae [20],16 µg/mL
same,MIC,Klebsiella pneumoniae [21],128 µg/mL
same,MIC,Escherichia coli [22],≤ 0.125 µg/mL
same,MIC,Klebsiella pneumoniae [23],4 µg/mL
same,MIC,Klebsiella pneumoniae [24],≤ 0.125 µg/mL
